From ChEMBL document CHEMBL4834461, “Intracellular fluorescence competition assay for inhibitor engagement of histone deacetylase” (Bioorg Med Chem Lett, 2021) come the findings set out here.

For one test, the target named is Histone deacetylase 1 (Homo sapiens, UniProt Q13547). The test can be described thus: Inhibition of HDAC1 (unknown origin).
The target in test [1] is T1, Protein deacetylase HDAC6 (Homo sapiens, UniProt Q9UBN7).
T1 sequence (Q9UBN7 whole entry): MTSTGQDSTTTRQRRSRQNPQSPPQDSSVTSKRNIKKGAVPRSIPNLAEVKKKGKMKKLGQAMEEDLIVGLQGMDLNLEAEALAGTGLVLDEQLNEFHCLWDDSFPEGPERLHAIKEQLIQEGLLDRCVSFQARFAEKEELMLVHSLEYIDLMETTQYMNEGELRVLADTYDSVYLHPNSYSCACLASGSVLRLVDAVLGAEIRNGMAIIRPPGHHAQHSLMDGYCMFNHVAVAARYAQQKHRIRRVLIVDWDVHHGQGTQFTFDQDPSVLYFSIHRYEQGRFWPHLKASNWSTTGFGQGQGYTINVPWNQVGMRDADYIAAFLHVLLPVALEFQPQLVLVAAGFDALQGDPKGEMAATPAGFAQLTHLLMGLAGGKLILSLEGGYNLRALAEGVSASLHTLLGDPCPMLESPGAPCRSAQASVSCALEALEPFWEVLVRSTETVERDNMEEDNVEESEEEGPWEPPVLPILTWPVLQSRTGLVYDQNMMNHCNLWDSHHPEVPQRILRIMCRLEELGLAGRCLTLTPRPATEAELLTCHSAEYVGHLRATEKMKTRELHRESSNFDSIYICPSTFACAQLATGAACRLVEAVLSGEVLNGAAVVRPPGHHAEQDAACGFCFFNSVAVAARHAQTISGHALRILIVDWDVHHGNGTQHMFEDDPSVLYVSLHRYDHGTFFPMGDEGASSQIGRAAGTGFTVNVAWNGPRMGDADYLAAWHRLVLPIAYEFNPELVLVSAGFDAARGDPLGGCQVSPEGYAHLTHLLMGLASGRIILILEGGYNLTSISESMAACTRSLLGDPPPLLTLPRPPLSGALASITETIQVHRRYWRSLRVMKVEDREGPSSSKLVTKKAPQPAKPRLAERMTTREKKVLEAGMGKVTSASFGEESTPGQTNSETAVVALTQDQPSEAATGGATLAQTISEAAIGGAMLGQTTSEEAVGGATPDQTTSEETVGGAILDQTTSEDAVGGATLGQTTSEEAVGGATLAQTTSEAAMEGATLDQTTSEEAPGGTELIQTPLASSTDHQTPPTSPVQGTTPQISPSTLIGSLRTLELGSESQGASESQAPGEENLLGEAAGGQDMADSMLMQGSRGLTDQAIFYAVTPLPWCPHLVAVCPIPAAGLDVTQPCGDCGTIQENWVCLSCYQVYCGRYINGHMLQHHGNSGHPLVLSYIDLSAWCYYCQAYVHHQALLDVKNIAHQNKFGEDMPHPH
Kind of test: Inhibition of HDAC6 (unknown origin).

Sequence of Histone deacetylase 1 (Q13547 whole entry): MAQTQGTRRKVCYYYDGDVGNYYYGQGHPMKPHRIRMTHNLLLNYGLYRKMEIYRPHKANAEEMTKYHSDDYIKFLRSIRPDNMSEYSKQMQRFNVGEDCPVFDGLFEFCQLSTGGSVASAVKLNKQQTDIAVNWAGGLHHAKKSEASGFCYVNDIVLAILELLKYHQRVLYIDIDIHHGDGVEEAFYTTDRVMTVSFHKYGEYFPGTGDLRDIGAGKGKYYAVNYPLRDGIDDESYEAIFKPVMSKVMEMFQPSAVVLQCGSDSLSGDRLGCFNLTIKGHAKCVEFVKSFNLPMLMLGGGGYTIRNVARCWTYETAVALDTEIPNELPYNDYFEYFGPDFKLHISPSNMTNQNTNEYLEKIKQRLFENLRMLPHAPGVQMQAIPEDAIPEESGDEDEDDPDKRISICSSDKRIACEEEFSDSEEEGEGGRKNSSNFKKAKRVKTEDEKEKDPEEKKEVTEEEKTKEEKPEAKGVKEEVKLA

The IC50 is the concentration needed to halve the response being measured. Higher therefore signals a need for much substance. In the case of `CCCNc1ccc2c3c(cccc13)C(=O)N(CCCC(=O)NO)C2=O`, the IC50 worked out at 9500 nM on Histone deacetylase 1 and 1120 nM in test [1].

On to `O=C(CCCCCN1C(=O)c2cccc3c(OCc4ccc(C(F)(F)F)cc4)ccc(c23)C1=O)NO`, for which the IC50 on Histone deacetylase 1 was 280 nM; in test [1] it was 12 nM.
